Source: patent US8337907B2, “Use of volatile oil from plants in preparing medicaments for preventing and treating diabetes” (priority 2007, dated 2012)
Like-named read-outs stand apart in the source and are kept apart here.

Experiments:
[1] = water, ethanol; cited from earlier work
[2] = cited from earlier work
[3] = test system: delayed type diabetic Wistar rat model (type 1 diabetes); test: delayed type streptozotocin plus CFA/IFA type 1 diabetes rat model; type: in vivo, Wistar rats; design: unit not given here; conditions: table: d-limonene 0.8 ml/kg; fasting 4 hours, 2 hours after dose; before treating 24.4 ± 2.958; p<0.01
[4] = test system: drug-induced diabetic rats; test: blood glucose in drug-induced diabetic rats, summary statement; type: in vivo; conditions: oral 0.8-2.4 ml/kg, within 0.5-2 hours
Description: The present invent can reduce fasting blood glucose of that severe case streptozotocin-induced rats of type 1 and type 2 diabetes.

type 2 diabetes patients = conditions: for postprandial blood glucose peak at breakfast: 0.9 ml at three meals daily, 7 days
Description: Patient keep measurable middling food and drink in the interim.

[5] = test system: type 1 diabetes rat model (IDDM); test: test of type 1 diabetes rat model (streptozotocin, day 3-6 after injection); type: in vivo, rats; conditions: 2.4 ml/kg intubated, 2 hours after dose
Description: Establishment of a type 1 diabetes rat test model. Recent years, more people have definitely expressed that viewed streptozotocin-induced of diabetes test model. Although, it is a model of type 1 diabetes in principle, but can using as a model of type 2 diabetes.

healthy rats = test: blood glucose of healthy rats; conditions: rat, in vivo
healthy volunteers = test: test to healthy volunteers; type: in vivo, human; conditions: for postprandial blood glucose peak at breakfast: 0.9 ml at three meals daily, 7 days
Method: A person, Healthy have not any disease.
A person, healthy without any disease. fasting blood glucose was waved in 5.0-5.4 mmol/L (79-96 mg/dl), in postprandial blood glucose 8-12.2 mmol/L ([…]) between. Abnormal glucose tolerance test.

[6] = test system: type 2 diabetes rat model; test: test of type 2 diabetes rat model (streptozotocin, fast-generated NIDDM model); type: in vivo, Wistar rats; design: unit not given here; conditions: 2.4 ml/kg intubated, fasting 4 hours, blood 2 hours after dose; before treatment 27.14 ± 1.154; p<0.01
[7] = Example 6 patient, treatment for 12 weeks
[8] = Example 7 patient, 7 days treatment

## C=C(C)C1CC=C(C)CC1 (stereo not shown) [Limonene, 1-methyl-4-prop-1-en-2-yl-cyclohexene]
[1]
  solubility: do not in water but in ethanol
[2]; from initial limonene, after oral administration
  Perilla acid methyl ester and Dihydrotestosterone Perilla acid methyl ester in plasma: 5%
[2]; in vivo
  eliminated in the CO2 exhaled: 2%
  eliminated in the dejecta: 5%
[2]; of limonene in plasma
  converted to primary metabolites Dihydrotestosterone acid Perilla and Perilla acid: about 35%
[2]; of the initial volume
  converted to limonene 1,2-diol: about 18%
[2]; within 24 hours
  eliminated in the urine: about 60%

## C=C(C)[C@H]1CC=C(C)CC1 [d-limonene, (4R)-1-methyl-4-prop-1-en-2-ylcyclohexene]
[3]
  fasting glucose after treating: 17.45 ± 1.886
[4]
  effect on blood glucose level: blood glucose level reduce a lot
Type 2 diabetes patients; Example 6 patient, before: under 15.6 mmol/L
  postprandial blood glucose peak at breakfast: 11.8 mmol/L
Type 2 diabetes patients; Example 6 patient, 6-8 hours after the meal, after 12 weeks
  hypoglycemic reaction without food: have not hypoglycemic reaction
Type 2 diabetes patients; Example 6 patient, 7 days treatment
  time of postprandial blood glucose peak: 1.25 h
Type 2 diabetes patients; [7]
  peak value time: 0.75 h
  postprandial blood glucose peak value: 10.4 mmol/L
Type 2 diabetes patients; Example 7 patient, before: maximum 23 mmol/L
  postprandial blood glucose peak at breakfast: 18.7 mmol/L
Type 2 diabetes patients; [8]
  blood glucose level average reduce, before to after treating: 6.99 mmol/L
  time of postprandial blood glucose peak: 1.25 h
Type 2 diabetes patients; type 2 diabetes patients, 0.9 ml after three meals daily
  effect on postprandial blood glucose levels: clear and stably reduce postprandial blood glucose levels
[5]; IDDM group 25.27 ± 2.632, p<0.01
  Blood glucose, First day: 20.26 ± 5.039 mmol/L
[5]; IDDM group 25.97 ± 2.966, p>0.05
  Blood glucose, Four day: 23.32 ± 4.891 mmol/L
[5]; IDDM group 26.08 ± 3.896, p<0.05
  Blood glucose, Third day: 21.88 ± 5.754 mmol/L
[5]; IDDM group 26.17 ± 2.858, p<0.05
  Blood glucose, 1-4 days Average: 21.89 ± 5.230 mmol/L
[5]; IDDM group 27.36 ± 1.243, p<0.01
  Blood glucose, Second day: 22.08 ± 5.421 mmol/L
Healthy rats
  effect on blood glucose of healthy rats: do not reduce blood glucose of healthy rats
[2]; after oral administration
  absorption from the gastrointestinal: absorbed rapidly
[2]; within 48 hours
  absorbed drug excreted by the urethra: 75-95%
Healthy volunteers; Example 8, healthy person
  blood glucose compared before and after treatment: blood glucose basically unchanged
  time of postprandial blood glucose peak: 0.5 h
  postprandial blood glucose peak at breakfast: 6.3 to 8.4 mmol/L
Healthy volunteers; Example 9, person
  blood glucose compared before and after treatment: blood glucose basically unchanged
  time of postprandial blood glucose peak: 0.5 h
Healthy volunteers; Example 9, person, abnormal glucose tolerance test, before 8-12.2 mmol/L
  postprandial blood glucose peak at breakfast: 10.3 to 11.7 mmol/L
Healthy volunteers; human, in vivo
  effect on postprandial or fasting blood glucose level in healthy: do not reduce postprandial or fasting blood glucose level
[6]
  fasting glucose after treatment: 19.39 ± 6.064
